Measurements published in patent US20100216802A1, “PTERIDINE DERIVATIVES AS POLO-LIKE KINASE INHIBITORS USEFUL IN THE TREATMENT OF CANCER” (CHROMA THERAPEUTICS LTD., priority 2006, published 2010).

Legend:
PLK1 = target: T1, PLK1 (Homo sapiens, UniProt P53350); test: PLK1 enzyme assay (Z'-LYTE, Invitrogen); assay type: biochemical; details: ATP at or close to Km; read-out: Inhibitor Activity vs PLK1
T1 construct: purchased Invitrogen (Paisley, UK)
Description: The ability of compounds to inhibit PLK-1 kinase activity was measured in an assay performed by Invitrogen (Paisley, UK). The Z′-LYTE™ biochemical assay employs a fluorescence-based, coupled-enzyme format and is based on the differential sensitivity of phosphorylated and non-phosphorylated peptides to proteolytic cleavage. The peptide substrate is labelled with two fluorophores—one at each end—that make up a FRET pair. In the primary reaction, the kinase transfers the gamma-phosphate of ATP to a single serine or threonine residue in a synthetic FRET-peptide. In the secondary reaction, a site-specific protease recognizes and cleaves non-phosphorylated FRET-peptides. Phosphorylation of FRET-peptides suppresses cleavage by the Development Reagent. Cleavage disrupts FRET between the donor (i.e., coumarin) and acceptor (i.e., fluorescein) fluorophores on the FRET-peptide, whereas uncleaved, phosphorylated FRET-peptides maintain FRET. A […] method, which calculates the ratio (the Emission Ratio) of donor emission to acceptor emission after excitation of the donor fluorophore at 400 nm, is used to quantitate reaction progress.
The assay is performed at an ATP concentration at, or close to, the Km. After the 60 minute Kinase Reaction incubation at RT, 5 μL of a 1:8 dilution of Development Reagent is added. The assay plate is incubated for a further 60 minutes at RT and read on a fluorescence plate reader.
Duplicate data points are generated from a ⅓ log dilution series of a stock solution of test compound in DMSO. Nine dilutions steps are made from a top concentration of 10 μM, and a ‘no compound’ blank is included. Data is collected and analysed using XLfit software from IDBS.

HCT 116 cell line = test: Cell inhibition assay method A (WST-1, 120 hrs); assay type: cell-based; details: Homo sapiens, HCT-116, method A, read-out: Inhibitor Activity vs HCT 116 cell line (method A)
Description: Cell inhibition assays were carried out using either method A or method B
Cells were seeded in 96W tissue culture plates (1 well=30 mm^2) at a density of […] per well in 50 μL of the appropriate culture medium (see below). 24 hrs later […] of the compound prepared in the same medium was added as 4 fold dilutions to give final concentrations in the range 0.15 nM-2500 nM (n=6 for each concentration). The plates were then incubated at 37° C., 5% CO2 for 120 hrs. Cell proliferation was assessed using WST-1 (a metabolic indicator dye, Roche Cat no. 1 644 807) according to the manufacturers instructions. The results were calculated as percentage of vehicle response and IC50 values represent the concentration of compound that inhibited the vehicle response by 50%.
HCT-116 culture medium —Dulbeccos MEM (Sigma D6546) plus 10% heat inactivated fetal calf serum (Hyclone SH30071 Thermo Fischer Scientific) containing 2 mM Glutamine (Sigma cat no G-7513) and 50 U/ml Penicillin and Streptomycin Sulphate (Sigma Cat no P-0781).

T1 sequence (P53350 whole entry): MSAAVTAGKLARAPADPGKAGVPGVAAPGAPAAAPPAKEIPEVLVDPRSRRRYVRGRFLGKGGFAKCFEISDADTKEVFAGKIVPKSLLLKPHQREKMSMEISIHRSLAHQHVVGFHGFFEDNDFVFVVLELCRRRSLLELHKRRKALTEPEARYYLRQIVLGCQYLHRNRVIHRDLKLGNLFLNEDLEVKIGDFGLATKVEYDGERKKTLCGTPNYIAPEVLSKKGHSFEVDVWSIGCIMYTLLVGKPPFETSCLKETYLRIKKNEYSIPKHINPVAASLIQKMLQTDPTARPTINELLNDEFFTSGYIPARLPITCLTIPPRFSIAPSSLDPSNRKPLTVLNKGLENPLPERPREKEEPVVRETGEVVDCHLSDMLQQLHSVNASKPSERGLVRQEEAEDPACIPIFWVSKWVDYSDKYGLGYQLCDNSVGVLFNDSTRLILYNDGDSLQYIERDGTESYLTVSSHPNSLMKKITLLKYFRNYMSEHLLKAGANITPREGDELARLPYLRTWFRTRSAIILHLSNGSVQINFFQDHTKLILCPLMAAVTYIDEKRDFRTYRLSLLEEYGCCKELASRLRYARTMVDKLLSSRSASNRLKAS

Row | SMILES | IC50 (PLK1) [nM] | IC50 (HCT 116 cell line) [nM]
1 | CC[C@@H]1C(=O)N(C)c2cnc(Nc3ccc(C(=O)NCC[C@H](N)C(=O)OC4CCCC4)cc3OC)nc2N1C1CCCC1 [Example 5, Cyclopentyl (2S)-2-amino-4-[(4-{[(7R)-8-cyclopentyl-7-ethyl-5-methyl-6-oxo-5,6,7,8-tetrahydropteridin-2-yl]amino}-3-methoxybenzoyl)amino]butanoate] | < 100 | < 100
2 | CC[C@@H]1C(=O)N(C)c2cnc(Nc3ccc(/C=C/C[C@H](N)C(=O)OC4CCCC4)cc3)nc2N1C1CCCC1 [Example 2] | < 100 | < 100
3 | CC[C@@H]1C(=O)N(C)c2cnc(Nc3ccc(C(=O)NC4CCN(CC[C@H](N)C(=O)OC5CCCC5)C4)cc3OC)nc2N1C1CCCC1 (stereo partly drawn) [Example 16] | < 100 | < 100
4 | CC[C@@H]1C(=O)N(C)c2cnc(Nc3ccc(C(=O)NC4CCN(CC[C@@H](N)C(=O)OC5CCCC5)C4)cc3OC)nc2N1C1CCCC1 (stereo partly drawn) [Example 17, Cyclopentyl (2R)-2-amino-4-{3-[(4-{[(7R)-8-cyclopentyl-7-ethyl-5-methyl-6-oxo-5,6,7,8-tetrahydropteridin-2-yl]amino}-3-methoxybenzoyl)amino]pyrrolidin-1-yl}butanoate] | < 100 | < 100
5 | CC[C@@H]1C(=O)N(C)c2cnc(Nc3ccc(C(=O)NC4CCN(CCC[C@H](N)C(=O)OC5CCCC5)CC4)cc3OC)nc2N1C1CCCC1 [Example 24, Cyclopentyl 5-{4-[(4-{[(7R)-8-cyclopentyl-7-ethyl-5-methyl-6-oxo-5,6,7,8-tetrahydropteridin-2-yl]amino}-3-methoxybenzoyl)amino]piperidin-1-yl}-L-norvalinate] | < 100 | < 100
6 | CC[C@@H]1C(=O)N(C)c2cnc(Nc3ccc(C(=O)Nc4ccc(/C=C/C[C@H](N)C(=O)OC5CCCC5)cc4)cc3OC)nc2N1C1CCCC1 [Example 20, Cyclopentyl (2S,4E)-2-amino-5-{4-[(4-{[(7R)-8-cyclopentyl-7-ethyl-5-methyl-6-oxo-5,6,7,8-tetrahydropteridin-2-yl]amino}-3-methoxybenzoyl)amino]phenyl}pent-4-enoate] | < 100 | < 100
7 | CC[C@@H]1C(=O)N(C)c2cnc(Nc3ccc(C(=O)NC4CCN(CC[C@H](N)C(=O)OC(C)(C)C)CC4)cc3OC)nc2N1C1CCCC1 [Example 25, t-Butyl (2S)-2-amino-4-{4-[(4-{[(7R)-8-cyclopentyl-7-ethyl-5-methyl-6-oxo-5,6,7,8-tetrahydropteridin-2-yl]amino}-3-methoxybenzoyl)amino]piperidin-1-yl}butanoate] | < 100 | < 100
8 | CC[C@@H]1C(=O)N(C)c2cnc(Nc3ccc(C(=O)NC4CCN(CCC[C@@H](N)C(=O)OC5CCCC5)CC4)cc3OC)nc2N1C1CCCC1 [Example 27, Cyclopentyl 5-{4-[(4-{[(7R)-8-cyclopentyl-7-ethyl-5-methyl-6-oxo-5,6,7,8-tetrahydropteridin-2-yl]amino}-3-methoxybenzoyl)amino]piperidin-1-yl}-D-norvalinate] | < 100 | < 100
9 | CC[C@@H]1C(=O)N(C)c2cnc(Nc3ccc(C(=O)NC4C5CN(CC[C@H](N)C(=O)OC6CCCC6)CC54)cc3OC)nc2N1C1CCCC1 (stereo partly drawn) [Example 18, Cyclopentyl (2S)-2-amino-4-{6-[(4-{[(7R)-8-cyclopentyl-7-ethyl-5-methyl-6-oxo-5,6,7,8-tetrahydropteridin-2-yl]amino}-3-methoxybenzoyl)amino]-3-azabicyclo[3.1.01]hex-3-yl}butanoate] | < 100 | < 100
10 | CC[C@@H]1C(=O)N(C)c2cnc(Nc3ccc(C(=O)NCc4ccc(OCC[C@H](N)C(=O)OC5CCCC5)cc4)cc3OC)nc2N1C1CCCC1 [Example 9, Cyclopentyl O-(4-{[(4-{[(7R)-8-cyclopentyl-7-ethyl-5-methyl-6-oxo-5,6,7,8-tetrahydropteridin-2-yl]amino}-3-methoxybenzoyl)amino]methyl}phenyl)-L-homoserinate] | 100 to 500 | < 100
11 | CC[C@@H]1C(=O)N(C)c2cnc(Nc3ccc(C(=O)NCc4ccc(OCC[C@H](N)C(=O)OC(C)(C)C)cc4)cc3OC)nc2N1C1CCCC1 [Example 12] | < 100 | < 100
12 | CC[C@@H]1C(=O)N(C)c2cnc(Nc3ccc(OCC[C@H](N)C(=O)OC4CCCC4)cc3OC)nc2N1C1CCCC1 [Example 4, Cyclopentyl O-(4-{[(7R)-8-cyclopentyl-7-ethyl-5-methyl-6-oxo-5,6,7,8-tetrahydropteridin-2-yl]amino}-3-methoxyphenyl)-L-homoserinate] | < 100 | < 100
13 | CC[C@@H]1C(=O)N(C)c2cnc(Nc3ccc(C(=O)Nc4ccc(CCC[C@H](N)C(=O)OC5CCCC5)cc4)cc3OC)nc2N1C1CCCC1 [Example 19, Cyclopentyl 5-{4-[(4-{[(7R)-8-cyclopentyl-7-ethyl-5-methyl-6-oxo-5,6,7,8-tetrahydro-pteridin-2-yl]amino}-3-methoxybenzoyl)amino]phenyl}-L-norvalinate] | < 100 | < 100
14 | CC[C@@H]1C(=O)N(C)c2cnc(Nc3ccc(C(=O)Nc4ccc(C[C@H](N)C(=O)OC5CCCC5)cc4)cc3OC)nc2N1C1CCCC1 [Example 7, Cyclopentyl 4-[(4-{[(7R)-8-cyclopentyl-7-ethyl-5-methyl-6-oxo-5,6,7,8-tetrahydropteridin-2-yl]amino}-3-methoxybenzoyl)amino]-L-phenylalaninate] | 100 to 500 | < 100
15 | CC[C@@H]1C(=O)N(C)c2cnc(Nc3ccc(C(=O)N4CCNC(C(=O)OC5CCCC5)C4)cc3OC)nc2N1C1CCCC1 (stereo partly drawn) [Example 13, Cyclopentyl 4-(4-{[(7R)-8-cyclopentyl-7-ethyl-5-methyl-6-oxo-5,6,7,8-tetrahydropteridin-2-yl]amino}-3-methoxybenzoyl)piperazine-2-carboxylate] | < 100 | 100 to 500
16 | CC[C@@H]1C(=O)N(C)c2cnc(Nc3ccc(C(=O)NC4CCN(CC[C@H](N)C(=O)OC5CCCC5)CC4)cc3F)nc2N1C1CCCC1 [Example 30, Cyclopentyl (2S)-2-amino-4-{4-[(4-{[(7R)-8-cyclopentyl-7-ethyl-5-methyl-6-oxo-5,6,7,8-tetra hydropteridin-2-yl]amino}-3-fluorobenzoyl)amino]piperidin-1-yl}butanoate] | < 100 | < 100
17 | CC[C@@H]1C(=O)N(C)c2cnc(Nc3ccc(C(=O)NC4CCN(CC[C@H](N)C(=O)OC(C)(C)C)CC4)cc3F)nc2N1C1CCCC1 [Example 29, t-Butyl (2S)-2-amino-4-{4-{(4-{[(7R)-8-cyclopentyl-7-ethyl-5-methyl-6-oxo-5,6,7,8-tetrahydropteridin-2-yl]amino}-3-fluorobenzoyl)amino]piperidin-1-yl}butanoate] | < 100 | < 100
18 | CC[C@@H]1C(=O)N(C)c2cnc(Nc3ccc(C[C@H](N)C(=O)OC4CCCC4)cc3)nc2N1C1CCCC1 [Example 1, Cyclopentyl 4-{[(7R)-8-cyclopentyl-7-ethyl-5-methyl-6-oxo-5,6,7,8-tetrahydropteridin-2-yl]amino}-L-phenylalaninate] | < 100 | 100 to 500
19 | CC[C@@H]1C(=O)N(C)c2cnc(Nc3ccc(C(=O)N[C@@H]4CN[C@H](C(=O)OC5CCCC5)C4)cc3OC)nc2N1C1CCCC1 [Example 6, Cyclopentyl (4S)-4-[(4-{[(7R)-8-cyclopentyl-7-ethyl-5-methyl-6-oxo-5,6,7,8-tetrahydropteridin-2-yl]amino}-3-methoxybenzoyl)amino]-L-prolinate] | < 100 | < 100
20 | CC[C@@H]1C(=O)N(C)c2cnc(Nc3ccc(C(=O)NCCCC[C@H](N)C(=O)OC4CCCC4)cc3OC)nc2N1C1CCCC1 [Example 8, Cyclopentyl N^6-(4-{[(7R)-8-cyclopentyl-7-ethyl-5-methyl-6-oxo-5,6,7,8-tetrahydropteridin-2-yl]amino}-3-methoxybenzoyl)lysinate] | < 100 | < 100
21 | CC[C@@H]1C(=O)N(C)c2cnc(Nc3ccc(C(=O)NCCN4CCC(C[C@H](N)C(=O)OC5CCCC5)CC4)cc3OC)nc2N1C1CCCC1 [Example 10, Cyclopentyl 3-(1-{2-[(4-{[(7R)-8-cyclopentyl-7-ethyl-5-methyl-6-oxo-5,6,7,8-tetrahydropteridin-2-yl]amino}-3-methoxybenzoyl)amino]ethyl}piperidin-4-yl)alaninate] | < 100 | < 100
